Results: patent US6403643B1, “Use of 2,5-dihydroxybenzenesulfonic derivatives for the normalization of endothelial function” (Laboratories del Dr. Esteve, S.A., priority 1997, dated 2002)

Experiments:
[1] = system: endothelium; test: Endothelium-dependent vascular relaxation in normal animals and animals with vitamin D2-induced vascular aging (background statement); conditions: normal animals and animals with vascular aging produced by high doses of vitamin D2
Source text: This effect is observed both in normal animals and in those in which vascular aging has been produced experimentally by means of the administration of high doses of vitamin D2. This activity of calcium dobesilate, of ethamsylate and of persilate may be reflected in man by effects which are therapeutically useful. […] Rosen, “The Pharmacology of Sexual Function and Dysfunction”, edited by J. Bancroft, Elsevier Sc., 1995, cages 277-287). The normalization of the endothelial function obtained with calcium dobesilate, ethamsylate and persilate can represent an entirely novel therapeutic approach to the problem of impotence (I. Saenz de Tejada et al., N. Engl. J. Med., 1989, 320, 1025-1030), both in patients with vascular disorders with various causes (diabetes, arteriosclerosis, and the like) and in patients where only a functional disorder can be detected.

[2] = system: aortas isolated from male rabbits; test: Relaxation of the contraction of isolated aorta maintained with 10^−6 M noradrenalin (in vitro); type: cell-based, rabbit; conditions: aorta contraction maintained with 10^−6 M noradrenalin; concentrations between 10^−4M and 10^−11M
Method: (§1) The studies were carried out by using the aortas isolated from male rabbits according to the techniques described by A. Quintana et al. (Europ. J. Pharmacol., 1978, 53, 113-116) and by the group from the University of Edinburgh (Pharmacological Experiments on Isolated Preparations, Edinburgh, Livingstone, 1970). The aortas isolated without the endothelium are prepared according to the technique described by R. Furchgott et al. (J. Cardiol. Pharmacol., 1984, 6, p. 336-p. 343).
1) Effect on the contraction of the aorta maintained with 10^−6 M noradrenalin.
Calcium dobesilate relaxes the contraction of noradrenalin in a way dependent on the concentration (between 10^−4M and 10^−11M). The maximum relaxation was 70%.

[3] = system: aortas isolated from male rabbits; test: Effect on the basal tension in aorta arteries with and without endothelium (basal tension 2 grams); type: cell-based, rabbit; conditions: concentrations between 10^−8M and 10^−4
Method: as §1
2) Effect on the basal tension in the aorta arteries with and without endothelium (basal tension=2 grams).
Calcium dobesilate at concentrations between 10^−8M and 10^−4 relaxes, in a dose-dependent way, the aortas subjected to a basal tension of 2 grams. The maximum relaxation was 44% for the arteries with endothelium and 48% for the arteries without endothelium.

[4] = system: aortas isolated from male rabbits; test: Effect on the noradrenalin concentration/effect curve in aorta with and without endothelium; type: cell-based, rabbit; conditions: concentration of 10^−6M
Method: as §1
3) Effect on the noradrenalin concentration/effect curve.
In arteries with the intact endothelium, calcium dobesilate at a concentration of 10^−6M inhibits a 44% the contraction obtained with 10 ^−4M noradrenalin.

[5] = system: aortas originating from the treated rabbits; test: Protective effect on the endothelium: relaxation of noradrenalin-contracted aortas from rabbits with vitamin D2 overdose; type: in vivo, rabbit; conditions: 10^−6M noradrenalin, calcium dobesilate between 10^−11M and 10^−5M on the artery
Method: The protective effect on the endothelium with calcium dobesilate was studied in the rabbit.
To do this, the arterial endothelium in rabbits is damaged by a daily treatment with an overdose of vitamin D2 and three groups of animals are used in the study:
II—Hypervitaminosis D2+50 mg/kg/day calcium dobesilate.
The studies are carried out with arteries originating from the treated rabbits by measuring the effect on the contraction of the aorta maintained with 10^−6M noradrenalin.
Calcium dobesilate (between 10^−11M and 10^−5M) relaxes in a dose-dependent way the contraction due to noradrenalin. The least relaxation corresponds to the hypervitaminosis D2 group (group I), whereas the maximum relaxation is obtained with the aortas of the group treated with calcium dobesilate (group II).
The maximum relaxation obtained for each group was as follows: […]

CCNCC.O=S(=O)(O)c1cc(O)ccc1O [ethamsylate, Diethylamine 2,5-dihydroxybenzenesulfonate]
effects on the endothelium [1]: facilitating endothelium-dependent vascular relaxation

CCNCC.CCNCC.O=S(=O)(O)c1cc(O)c(S(=O)(=O)O)cc1O [persilate, Bis(diethylamine) 2,5-dihydroxybenzene-1,4-disulfonate]
effects on the endothelium [1]: facilitating endothelium-dependent vascular relaxation

Calcium 2,5-dihydroxybenzenesulfonate [calcium dobesilate]
maximum relaxation of the contraction of noradrenalin [2]: 70%
maximum relaxation of basal tension ([3]; arteries with endothelium): 44%
maximum relaxation of basal tension ([3]; arteries without endothelium): 48%
inhibition of the contraction obtained with 10^−4M noradrenalin ([4]; arteries with the intact endothelium): 44%
effect on the noradrenalin concentration/effect curve ([4]; arteries without endothelium): no modification of the curve
maximum relaxation of the contraction due to noradrenalin ([5]; aortas of Group I (hypervitaminosis D2)): 52%
maximum relaxation of the contraction due to noradrenalin ([5]; aortas of Group II (hypervitaminosis D2 + 50 mg/kg/day calcium dobesilate)): 100%
maximum relaxation of the contraction due to noradrenalin ([5]; aortas of Group O (control rabbits)): 69%
effects on the endothelium [1]: facilitating endothelium-dependent vascular relaxation
